Marks after values point to notes of the source that are not given here.
System: oocytes inseminated with separated stained spermatozoa from frozen-thawed sperm
Assay: In-vitro fertilization: cleavage and development of oocytes inseminated with stained, flow-sorted frozen-thawed bull sperm
Type: cell-based, bovine
Protocol: As an example of an application of embodiments of the invention involving frozen bull sperm in IVF applications, sperm samples from two bulls were stained either at a concentration of 224 μM or 2,240 of Hoechst 33342 and the stained spermatozoa were then bulk sorted on a flow cytometer at 1000 sperm/sec into 2% egg yolk citrate. Spermatozoa were inseminated at 1×10^6/mL and embryos were cultured in the mSOF system described by Tervit H. R. et al., Successful Culture In-Vitro of Sheep and Cattle Ova, J. Reprod. Fertil., 30:493-497([…]), hereby incorporated by reference. Three replicates were carried out for bull 1 and one replicate for bull 2 (Table 1). With conventional procedures, blastocyst production with separated spermatozoa can be 70-90% of controls with spermatozoa that have not been separated.
As can be understood, it can take much longer to stain frozen-thawed sperm so that they can be resolved during separation at the lower stain concentration than at 10×stain concentration. The differences observed in cleavage rates between the two stain concentrations most likely can be attributed to the extended incubation time at the lower stain level.

[1] = Bull 1, 3 ejaculates, Hoechst 33342 conc. 224 μM, staining time required 190 min, 368 oocytes
[2] = Bull 1, 3 ejaculates, Hoechst 33342 conc. 2240 μM, staining time required 60 min, 373 oocytes
[3] = Bull 2, 1 ejaculate, Hoechst 33342 conc. 224 μM, staining time required 190 min, 86 oocytes
[4] = Bull 2, 1 ejaculate, Hoechst 33342 conc. 2240 μM, staining time required 60 min, 81 oocytes

For CCOc1ccc(-c2nc3ccc(-c4nc5ccc(N6CCN(C)CC6)cc5[nH]4)cc3[nH]2)cc1 [Hoechst 33342], which “% blastocysts/oocyte” value [1] is on record?
Its value is 17%.

And the “% cleave” value [1]?
The value was 44^a %.

What about the “% blastocysts/oocyte” value [2] of the same molecule?
The value was 23%.

And the “% cleave” value [2]?
Its value is 60^b %.

And the “% blastocysts/oocyte” value [3]?
Its value is 0^a %.

And the “% cleave” value [3]?
The value was 23^a %.

And the “% blastocysts/oocyte” value [4]?
The value was 16^b %.

What about the “% cleave” value [4] of the same molecule?
The value was 42^b %.

And the “effect of increased stain concentration on cleavage or embryonic development” value (stain concentration up to at least 2240 μM)?
The value was “does not appear to have a depressive effect”.

— patent US8652769B2, “Methods for separating frozen-thawed spermatozoa into X-chromosome bearing and Y-chromosome bearing populations” (XY, LLC, priority 2000, dated 2014)
